For experiment [1], the system named is HLA-A*02:01 transgenic mouse. Description: Test 10: in vivo adjuvant activity, cocktail vaccine b, IFNγ ELISPOT. As to conditions: added to cocktail vaccine b; 0.4 nmol per body, twice; FIG. 8 and 9. The protocol:
Evaluation of In Vivo Adjuvant Activity in HLA-A*02:01 Transgenic Mouse
The in vivo adjuvant activity of the compound of Example 11 was evaluated in the following procedure. To cocktail vaccine b like Test 9 was added the compound prepared in Example 11 to prepare a vaccine. The vaccine was administered to a HLA-A*02:01 transgenic mouse, and the adjuvant activity of the vaccine was evaluated by the method of testing antigen-specific CTL induction.
Specifically, Compound of formula 4 and Peptide SEQ ID No. 3 were dissolved in DMSO, and then diluted with water for injection to concentrations of Compound of formula 4 of 3 mg/mL and Peptide SEQ ID No. 3 of 2.25 mg/mL. The diluted peptide solution was mixed and emulsified with an equal volume of Montanide ISA 51 VG to prepare cocktail vaccine b. Cocktail vaccine b was injected to mice intradermally at the tail base area in an amount for administering 300 μg of Compound of formula 4 per body and 225 μg of Peptide SEQ ID No. 3 per body. […] Then, after removal of the supernatant from the wells, stained spots on the ELISPOT plate were counted.

Experiment [2] deals with T1, human TLR7 (Homo sapiens, UniProt Q9NYK1).
T1 construct: expresses full-length human TLR7 and secretory alkaline phosphatase (SEAP) reporter gene; host or cells: HEK293 (TLR7/NF-κB/SEAPorter)
T1 sequence (Q9NYK1 27-1049): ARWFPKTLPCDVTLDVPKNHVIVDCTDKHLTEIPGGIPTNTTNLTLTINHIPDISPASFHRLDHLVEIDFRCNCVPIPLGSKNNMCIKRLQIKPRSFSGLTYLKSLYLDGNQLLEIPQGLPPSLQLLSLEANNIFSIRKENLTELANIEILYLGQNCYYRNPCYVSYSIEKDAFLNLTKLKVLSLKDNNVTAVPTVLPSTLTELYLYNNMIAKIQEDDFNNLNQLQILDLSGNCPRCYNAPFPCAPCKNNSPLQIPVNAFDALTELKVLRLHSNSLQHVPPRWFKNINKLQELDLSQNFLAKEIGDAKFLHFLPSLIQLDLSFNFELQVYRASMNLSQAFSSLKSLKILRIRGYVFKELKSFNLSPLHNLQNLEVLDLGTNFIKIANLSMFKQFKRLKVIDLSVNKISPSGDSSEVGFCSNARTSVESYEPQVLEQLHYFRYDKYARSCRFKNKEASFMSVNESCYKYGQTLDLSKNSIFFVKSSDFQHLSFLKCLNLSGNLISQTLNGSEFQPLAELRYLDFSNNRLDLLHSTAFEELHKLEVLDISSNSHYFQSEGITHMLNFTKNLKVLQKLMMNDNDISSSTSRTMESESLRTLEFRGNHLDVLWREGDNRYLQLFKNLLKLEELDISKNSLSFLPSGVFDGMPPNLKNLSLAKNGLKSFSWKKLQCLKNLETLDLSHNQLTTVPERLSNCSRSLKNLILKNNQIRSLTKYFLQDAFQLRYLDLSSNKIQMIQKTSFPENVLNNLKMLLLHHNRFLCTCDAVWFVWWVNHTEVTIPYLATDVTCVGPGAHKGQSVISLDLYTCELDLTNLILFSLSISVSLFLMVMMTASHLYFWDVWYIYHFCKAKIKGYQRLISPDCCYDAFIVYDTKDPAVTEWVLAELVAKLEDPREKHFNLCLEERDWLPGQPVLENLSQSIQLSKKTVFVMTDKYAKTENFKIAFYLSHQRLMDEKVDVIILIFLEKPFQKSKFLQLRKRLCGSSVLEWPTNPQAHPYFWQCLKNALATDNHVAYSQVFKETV
Put plainly: Human TLR7 reporter gene assay (TLR7/NF-κB/SEAPorter HEK293 cell line), Tests 1 and 21. Format: cell-based. The following applies: Test 21; according to the method of Test 1; read-out: human EC50. An excerpt:
Human TLR7 Reporter Gene Assay
(§1) TLR7/NF-κB/SEAPorter™ HEK293 cell line (Imgenex Corporation) is a stably co-transfected cell line which expresses full-length human TLR7 and secretory alkaline phosphatase (SEAP) reporter gene under the transcriptional regulation of an NF-κB response element. The TLR7 expression of the cell line has been already tested by flow cytometry. Transfectants with stable expression were selected using the antibiotic blasticidin and Geneticin. TLR signaling leads to the translocation of NF-κB and the activation of the promoter results in expression of the SEAP gene. TLR7-specific activation was assessed by determining the level of SEAP produced following 24-hour incubation of the cells at 37° C. with each compound prepared in Examples and Reference examples in the presence of 0.1% (v/v) dimethylsulfoxide (DMSO). The human TLR7 activity for the present compound was assessed by human TLR7 reporter gene assay, and the results are shown in Tables 3 and 4 as the compound concentration which produced half of the maximal level of SEAP induction (EC50)
According to the method of Test 1, human TLR7 reporter gene assay was done with the following samples, and the result was shown in the table below.
Background: In a reporter assay the amount or activity of a reporter protein is the signal.

The target in experiment [3] is T1, human TLR7. Put plainly: Human TLR7 reporter gene assay (HEK-Blue hTLR7 cell line), Test 22. The following applies: method of Test 1. It counts as cell-based.
Excerpt: as §1
According to the method of Test 1, human TLR7 reporter gene assay was done with the following samples, and the result was shown in the table below. The cell used herein was HEK-Blue™ hTLR7 cell line (Invivogen). HEK-Blue™ hTLR7 cell line is a stably co-transfected cell line which expresses full-length human TLR7 and secretory SEAP reporter gene under the transcriptional regulation of an NF-κB response element. The TLR7 expression of the cell line has been already tested by RT-PCR. Transfectants with stable expression were selected using the antibiotic blasticidin and Zeocin.

As a reminder, the EC50 is the concentration at which the effect is half-maximal. With `CCCCCNc1nc(N)nc(C)c1Cc1ccc(CN(CCOCCOCCOCCO)CCOCCOCCOCCO)cc1OC` [Example 11, 12-[(4-{[2-amino-4-methyl-6-(pentylamino)pyrimidin-5-yl]methyl}-3-methoxyphenyl)methyl]-3,6,9,15,18,21-hexaoxa-12-azatricosan-1,23-diol], the “CTL counts responsive to Peptide SEQ ID No. 1 or SEQ ID No. 4 compared with adding no compound” value in experiment [1] was “more”. In addition, the EC50 at human TLR7 [2] stood at 774 nM.
Take `CCC[C@@H](CO)Nc1nc(N)nc(C)c1Cc1ccc(C(=O)NCCOCCOCCOCCOCCOCCOCCO)cc1OC` [Example 5, 4-[(2-amino-4-{[(2S)-1-hydroxypentan-2-yl]amino}-6-methylpyrimidin-5-1)methyl]-N-(20-hydroxy-3,6,9,12,15,18-hexaoxaicosan-1-yl)-3-methoxybenzamide]: the concentration giving a half-maximal response (EC50) at human TLR7 [3] amounted to 7270 nM.
`CCCCCNc1nc(N)nc(C)c1Cc1ccc(COCCOCCOCCOCCOC)cc1OC` [Example 7, 5-{[2-methoxy-4-(2,5,8,11,14-pentaoxapentadecan-1-yl)phenyl]methyl}-6-methyl-N^4-pentylpyrimidine-2,4-diamine] had an EC50 on human TLR7 [3] of 71 nM.
The same measure, in the same setting: as for `CCC[C@@H](CO)Nc1nc(N)nc(C)c1Cc1ccc(C(=O)OCCOCCOCCOCCOC)cc1OC` [Example 6, 2,5,8,11-tetraoxatridecan-13-yl 4-[(2-amino-4-{[(2S)-1-hydroxypentan-2-yl]amino}-6-methylpyrimidin-5-yl)methyl]-3-methoxybenzoate], the figure is 119 nM.

(Values after patent publication US12427192B2, “Water soluble adjuvant and composition containing same” (Sumitomo Pharma Co., Ltd., priority 2019, dated 2025).)
